Read-outs that look alike come from different tables or passages of the source.
Columns and labels:
Assay in all cases: KinomeScan kinase panel, single concentration 10 µM
Assay type in all cases: binding
[1] = target: T1, KinomeScan kinase panel (Homo sapiens, UniProt Q9NYY3)
T1 construct: purchased DiscoveRx (KinomeScan)

[2] = target: T2, KinomeScan kinase panel (Homo sapiens, UniProt P51617); conditions: IRAK1, 10 µM; read-out: score (%)
T2 construct: purchased DiscoveRx (KinomeScan)

[3] = target: T3, KinomeScan kinase panel (Homo sapiens, UniProt Q56UN5); conditions: kinase YSK4; 10 µM; read-out: score (%)
T3 construct: purchased DiscoveRx (KinomeScan)

[4] = target: T4, KinomeScan kinase panel (Homo sapiens, UniProt P10721, L576P); conditions: KIT(L576P), 10 µM; read-out: score (%)
T4 construct: purchased DiscoveRx (KinomeScan)

[5] = target: T5, KinomeScan kinase panel (Homo sapiens, UniProt P42336, C420R); conditions: PIK3CA(C420R), 10 µM; read-out: score (%)
T5 construct: purchased DiscoveRx (KinomeScan)
T5 sequence (P42336 whole entry C420R): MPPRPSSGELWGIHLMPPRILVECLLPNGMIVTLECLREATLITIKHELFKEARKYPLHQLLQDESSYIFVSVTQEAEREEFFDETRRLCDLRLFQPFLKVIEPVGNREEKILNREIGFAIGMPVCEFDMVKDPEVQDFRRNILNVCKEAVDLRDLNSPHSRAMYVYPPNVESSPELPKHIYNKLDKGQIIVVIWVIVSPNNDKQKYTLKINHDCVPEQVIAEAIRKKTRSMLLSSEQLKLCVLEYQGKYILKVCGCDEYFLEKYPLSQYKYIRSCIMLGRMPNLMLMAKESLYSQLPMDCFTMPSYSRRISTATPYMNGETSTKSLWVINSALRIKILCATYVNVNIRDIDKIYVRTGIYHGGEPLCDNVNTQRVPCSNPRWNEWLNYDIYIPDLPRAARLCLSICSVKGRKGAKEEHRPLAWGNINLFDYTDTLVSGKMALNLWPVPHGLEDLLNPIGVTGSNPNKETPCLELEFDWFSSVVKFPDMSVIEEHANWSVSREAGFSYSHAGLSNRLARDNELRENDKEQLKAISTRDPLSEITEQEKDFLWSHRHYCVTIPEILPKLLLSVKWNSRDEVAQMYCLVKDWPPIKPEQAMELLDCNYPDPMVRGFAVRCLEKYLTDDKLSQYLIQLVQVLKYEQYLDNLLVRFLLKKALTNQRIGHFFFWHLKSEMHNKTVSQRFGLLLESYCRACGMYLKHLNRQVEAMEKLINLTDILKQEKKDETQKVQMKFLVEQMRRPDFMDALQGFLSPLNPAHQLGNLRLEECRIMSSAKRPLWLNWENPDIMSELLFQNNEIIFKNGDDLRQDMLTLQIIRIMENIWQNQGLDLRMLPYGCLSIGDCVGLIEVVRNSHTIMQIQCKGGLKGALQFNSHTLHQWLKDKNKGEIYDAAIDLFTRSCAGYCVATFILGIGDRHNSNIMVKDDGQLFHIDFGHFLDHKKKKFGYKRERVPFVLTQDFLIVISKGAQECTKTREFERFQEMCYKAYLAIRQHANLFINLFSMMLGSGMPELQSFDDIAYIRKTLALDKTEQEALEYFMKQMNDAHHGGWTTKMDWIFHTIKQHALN

[6] = target: T6, KinomeScan kinase panel (Homo sapiens, UniProt Q13627); conditions: DYRK1A, 10 µM; read-out: score (%)
T6 construct: purchased DiscoveRx (KinomeScan)

[7] = target: T7, KinomeScan kinase panel (Homo sapiens, UniProt P00533, L858R/T790M); conditions: EGFR(L858R.T790M), 10 µM
T7 construct: purchased DiscoveRx (KinomeScan)

[8] = target: T8, KinomeScan kinase panel (Homo sapiens, UniProt O76039); conditions: CDKL5, 10 µM; read-out: score (%)
T8 construct: purchased DiscoveRx (KinomeScan)

[9] = target: T9, KinomeScan kinase panel (Homo sapiens, UniProt O95747); conditions: OSR1, 10 µM; read-out: score (%)
T9 construct: purchased DiscoveRx (KinomeScan)

[10] = target: T10, KinomeScan kinase panel (Homo sapiens, UniProt Q92630); conditions: DYRK2, 10 µM; read-out: score (%)
T10 construct: purchased DiscoveRx (KinomeScan)

[11] = target: T11, KinomeScan kinase panel (Homo sapiens, UniProt P42336, Q546K); conditions: PIK3CA(Q546K), 10 µM; read-out: score (%)
T11 construct: purchased DiscoveRx (KinomeScan)
T11 sequence (P42336 whole entry Q546K): as the sequence (P42336 whole entry C420R) above, with R420C, Q546K counted along it

[12] = target: T12, KinomeScan kinase panel (Homo sapiens, UniProt P42336, E542K); conditions: PIK3CA(E542K), 10 µM; read-out: score (%)
T12 construct: purchased DiscoveRx (KinomeScan)
T12 sequence (P42336 whole entry E542K): as the sequence (P42336 whole entry C420R) above, with R420C, E542K counted along it

[13] = target: T13, KinomeScan kinase panel (Homo sapiens, UniProt O95382); conditions: ASK2, 10 µM; read-out: score (%)
T13 construct: purchased DiscoveRx (KinomeScan)
T13 sequence (O95382 whole entry): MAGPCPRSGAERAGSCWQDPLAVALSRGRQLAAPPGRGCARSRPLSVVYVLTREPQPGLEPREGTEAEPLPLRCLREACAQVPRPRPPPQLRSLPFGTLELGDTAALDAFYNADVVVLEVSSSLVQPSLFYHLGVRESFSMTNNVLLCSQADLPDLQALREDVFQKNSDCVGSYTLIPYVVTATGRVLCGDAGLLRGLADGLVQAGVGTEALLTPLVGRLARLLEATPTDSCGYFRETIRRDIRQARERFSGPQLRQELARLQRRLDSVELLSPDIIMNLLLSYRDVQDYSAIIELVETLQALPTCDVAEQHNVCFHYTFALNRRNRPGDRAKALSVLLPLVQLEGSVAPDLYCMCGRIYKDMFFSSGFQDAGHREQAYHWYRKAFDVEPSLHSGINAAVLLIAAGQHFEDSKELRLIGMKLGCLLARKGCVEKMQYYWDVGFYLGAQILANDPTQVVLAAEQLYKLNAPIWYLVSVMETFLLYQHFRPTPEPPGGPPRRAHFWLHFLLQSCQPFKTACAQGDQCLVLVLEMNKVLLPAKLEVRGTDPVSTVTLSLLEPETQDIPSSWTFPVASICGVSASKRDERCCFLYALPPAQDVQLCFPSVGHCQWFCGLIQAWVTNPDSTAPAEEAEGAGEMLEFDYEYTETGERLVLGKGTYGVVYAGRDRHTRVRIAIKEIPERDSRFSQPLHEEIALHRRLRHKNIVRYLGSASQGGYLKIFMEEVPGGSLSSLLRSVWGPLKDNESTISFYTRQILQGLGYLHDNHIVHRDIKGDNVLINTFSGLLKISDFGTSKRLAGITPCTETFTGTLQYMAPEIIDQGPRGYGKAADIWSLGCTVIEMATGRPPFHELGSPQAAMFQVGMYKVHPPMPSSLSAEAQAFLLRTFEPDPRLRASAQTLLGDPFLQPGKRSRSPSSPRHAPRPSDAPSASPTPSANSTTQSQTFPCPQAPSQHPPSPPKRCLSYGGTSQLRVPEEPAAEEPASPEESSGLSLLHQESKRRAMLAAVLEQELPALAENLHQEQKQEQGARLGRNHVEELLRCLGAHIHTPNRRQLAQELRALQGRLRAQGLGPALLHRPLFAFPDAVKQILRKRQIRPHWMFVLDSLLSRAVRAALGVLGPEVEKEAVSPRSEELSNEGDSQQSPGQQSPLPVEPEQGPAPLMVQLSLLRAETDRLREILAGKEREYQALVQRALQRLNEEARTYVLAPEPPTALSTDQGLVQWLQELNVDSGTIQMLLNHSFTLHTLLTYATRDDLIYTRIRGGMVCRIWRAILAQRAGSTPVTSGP

[14] = target: T14, KinomeScan kinase panel (Homo sapiens, UniProt Q13464); conditions: read-out: score (%)
T14 construct: purchased DiscoveRx (KinomeScan)

[15] = target: T15, KinomeScan kinase panel (Homo sapiens, UniProt P42679); conditions: CTK, 10 µM; read-out: score (%)
T15 construct: purchased DiscoveRx (KinomeScan)
T15 sequence (P42679 whole entry): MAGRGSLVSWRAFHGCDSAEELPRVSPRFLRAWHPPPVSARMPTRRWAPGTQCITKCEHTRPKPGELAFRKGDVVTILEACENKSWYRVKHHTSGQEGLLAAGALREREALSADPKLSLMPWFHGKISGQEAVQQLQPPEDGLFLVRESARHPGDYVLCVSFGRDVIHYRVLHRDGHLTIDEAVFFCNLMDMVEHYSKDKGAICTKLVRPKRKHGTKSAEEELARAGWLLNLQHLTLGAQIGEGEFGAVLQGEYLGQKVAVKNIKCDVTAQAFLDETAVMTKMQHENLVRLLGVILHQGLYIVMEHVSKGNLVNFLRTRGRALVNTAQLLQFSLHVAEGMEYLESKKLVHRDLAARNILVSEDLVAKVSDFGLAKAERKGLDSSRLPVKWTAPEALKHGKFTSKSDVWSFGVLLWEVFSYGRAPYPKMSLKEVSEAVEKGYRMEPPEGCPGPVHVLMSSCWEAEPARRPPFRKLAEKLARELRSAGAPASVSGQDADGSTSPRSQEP

[16] = target: T16, KinomeScan kinase panel (Homo sapiens, UniProt O75747); conditions: PIK3C2G, 10 µM; read-out: score (%)
T16 construct: purchased DiscoveRx (KinomeScan)

[17] = target: T17, KinomeScan kinase panel (Homo sapiens, UniProt P42336, H1047Y); conditions: PIK3CA(H1047Y), 10 µM; read-out: score (%)
T17 construct: purchased DiscoveRx (KinomeScan)
T17 sequence (P42336 whole entry H1047Y): as the sequence (P42336 whole entry C420R) above, with R420C, H1047Y counted along it

[18] = target: T18, KinomeScan kinase panel (Homo sapiens, UniProt Q15208); conditions: NDR1, 10 µM; read-out: score (%)
T18 construct: purchased DiscoveRx (KinomeScan)

[19] = target: T19, KinomeScan kinase panel (Homo sapiens, UniProt P42336, H1047L); conditions: PIK3CA(H1047L), 10 µM; read-out: score (%)
T19 construct: purchased DiscoveRx (KinomeScan)

[20] = target: T20, KinomeScan kinase panel (Homo sapiens, UniProt P08581, M1250T); conditions: MET(M1250T), 10 µM
T20 construct: purchased DiscoveRx (KinomeScan)

[21] = target: T21, KinomeScan kinase panel (Homo sapiens, UniProt P42336, M1043I); conditions: PIK3CA(M1043I), 10 µM; read-out: score (%)
T21 construct: purchased DiscoveRx (KinomeScan)

[22] = target: T22, KinomeScan kinase panel (Homo sapiens, UniProt Q9H2X6); conditions: HIPK2, 10 µM; read-out: score (%)
T22 construct: purchased DiscoveRx (KinomeScan)

[23] = target: T23, KinomeScan kinase panel (Homo sapiens, UniProt O43283); conditions: LZK, 10 µM
T23 construct: purchased DiscoveRx (KinomeScan)

[24] = target: T24, KinomeScan kinase panel (Homo sapiens, UniProt Q13233); conditions: MAP3K1, 10 µM; read-out: score (%)
T24 construct: purchased DiscoveRx (KinomeScan)

[25] = target: T25, KinomeScan kinase panel (Homo sapiens, UniProt P08581, Y1235D); conditions: MET(Y1235D), 10 µM
T25 construct: purchased DiscoveRx (KinomeScan)
T25 sequence (P08581 25-1390 Y1235D): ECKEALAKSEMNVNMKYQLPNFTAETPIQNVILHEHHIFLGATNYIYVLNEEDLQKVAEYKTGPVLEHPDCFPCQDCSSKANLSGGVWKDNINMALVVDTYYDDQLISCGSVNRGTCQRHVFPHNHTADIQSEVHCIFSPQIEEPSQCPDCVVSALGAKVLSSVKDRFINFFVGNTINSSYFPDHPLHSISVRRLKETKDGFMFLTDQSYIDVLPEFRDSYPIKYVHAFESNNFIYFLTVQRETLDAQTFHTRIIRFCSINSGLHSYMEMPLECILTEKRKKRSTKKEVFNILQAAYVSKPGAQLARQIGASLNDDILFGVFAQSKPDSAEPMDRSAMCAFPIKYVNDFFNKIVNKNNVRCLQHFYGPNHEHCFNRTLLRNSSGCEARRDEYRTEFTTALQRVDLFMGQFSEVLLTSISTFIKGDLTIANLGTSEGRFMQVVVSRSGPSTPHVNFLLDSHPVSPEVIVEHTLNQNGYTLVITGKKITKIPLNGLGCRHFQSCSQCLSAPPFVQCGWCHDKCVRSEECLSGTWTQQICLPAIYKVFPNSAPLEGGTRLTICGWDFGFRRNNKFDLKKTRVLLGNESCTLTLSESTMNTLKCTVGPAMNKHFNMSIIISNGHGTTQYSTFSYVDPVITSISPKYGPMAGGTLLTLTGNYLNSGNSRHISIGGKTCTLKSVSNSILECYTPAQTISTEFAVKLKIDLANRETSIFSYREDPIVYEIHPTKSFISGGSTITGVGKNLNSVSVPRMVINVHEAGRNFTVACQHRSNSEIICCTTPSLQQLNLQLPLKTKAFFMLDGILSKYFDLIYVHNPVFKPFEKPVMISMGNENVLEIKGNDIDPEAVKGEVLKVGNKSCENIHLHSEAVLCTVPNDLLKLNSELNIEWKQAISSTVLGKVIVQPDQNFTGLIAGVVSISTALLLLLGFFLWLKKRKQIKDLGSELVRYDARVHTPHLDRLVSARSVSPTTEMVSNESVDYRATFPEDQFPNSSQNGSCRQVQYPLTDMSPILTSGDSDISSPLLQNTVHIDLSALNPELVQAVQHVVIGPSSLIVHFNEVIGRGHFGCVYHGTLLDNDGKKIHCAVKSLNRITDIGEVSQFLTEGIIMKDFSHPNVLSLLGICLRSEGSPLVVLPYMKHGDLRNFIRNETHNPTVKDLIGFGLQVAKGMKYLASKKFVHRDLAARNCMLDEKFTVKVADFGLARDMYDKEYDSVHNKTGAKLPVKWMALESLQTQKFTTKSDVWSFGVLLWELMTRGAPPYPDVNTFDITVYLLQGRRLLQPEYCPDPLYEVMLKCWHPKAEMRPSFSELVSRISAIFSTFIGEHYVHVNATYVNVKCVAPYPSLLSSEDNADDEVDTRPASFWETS

[26] = target: T26, KinomeScan kinase panel (Homo sapiens, UniProt Q9UHD2); conditions: kinase TBK1; 10 µM; read-out: score (%)
T26 construct: purchased DiscoveRx (KinomeScan)
T26 sequence (Q9UHD2 whole entry): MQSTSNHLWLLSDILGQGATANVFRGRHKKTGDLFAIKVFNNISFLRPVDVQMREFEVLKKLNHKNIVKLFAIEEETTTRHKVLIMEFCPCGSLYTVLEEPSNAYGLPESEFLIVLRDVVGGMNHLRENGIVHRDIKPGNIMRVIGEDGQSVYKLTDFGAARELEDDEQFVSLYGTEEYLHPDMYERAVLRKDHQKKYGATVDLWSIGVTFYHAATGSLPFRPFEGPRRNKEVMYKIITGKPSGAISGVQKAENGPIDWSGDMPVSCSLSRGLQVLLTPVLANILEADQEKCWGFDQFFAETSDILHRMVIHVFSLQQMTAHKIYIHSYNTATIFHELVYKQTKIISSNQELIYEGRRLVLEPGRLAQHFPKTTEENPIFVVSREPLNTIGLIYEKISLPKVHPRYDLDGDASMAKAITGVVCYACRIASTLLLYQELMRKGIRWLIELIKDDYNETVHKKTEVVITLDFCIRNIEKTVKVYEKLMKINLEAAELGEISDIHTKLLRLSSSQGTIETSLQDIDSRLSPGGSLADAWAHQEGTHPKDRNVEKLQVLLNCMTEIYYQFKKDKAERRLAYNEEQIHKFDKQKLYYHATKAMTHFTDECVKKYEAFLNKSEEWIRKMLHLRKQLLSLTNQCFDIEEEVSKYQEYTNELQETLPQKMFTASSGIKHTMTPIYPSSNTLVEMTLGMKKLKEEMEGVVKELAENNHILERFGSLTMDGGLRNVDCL

[27] = target: T27, KinomeScan kinase panel (Homo sapiens, UniProt O15197); conditions: EPHB6, 10 µM; read-out: score (%)
T27 construct: purchased DiscoveRx (KinomeScan)

[28] = target: T28, KinomeScan kinase panel (Homo sapiens, UniProt Q9Y6M4); conditions: CSNK1G3, 10 µM
T28 construct: purchased DiscoveRx (KinomeScan)

[29] = target: T29, KinomeScan kinase panel (Homo sapiens, UniProt P53779); conditions: JNK3, 10 µM
T29 construct: purchased DiscoveRx (KinomeScan)

[30] = target: T30, KinomeScan kinase panel (Homo sapiens, UniProt O14733); conditions: MKK7, 10 µM
T30 construct: purchased DiscoveRx (KinomeScan)

[31] = target: T31, KinomeScan kinase panel (Homo sapiens, UniProt Q96BR1); conditions: kinase SGK3; 10 µM; read-out: score (%)
T31 construct: purchased DiscoveRx (KinomeScan)

[32] = target: T32, KinomeScan kinase panel (Homo sapiens, UniProt O14936); conditions: CASK, 10 µM; read-out: score (%)
T32 construct: purchased DiscoveRx (KinomeScan)

[33] = target: T33, KinomeScan kinase panel (Homo sapiens, UniProt P23443); conditions: kinase S6K1; 10 µM; read-out: score (%)
T33 construct: purchased DiscoveRx (KinomeScan)

## CCN1CCN(Cc2ccc(NC(=O)c3ccc(C)c(NC(=O)c4cncc(-c5cccs5)c4)c3)cc2C(F)(F)F)CC1 [ALW-II-41-27]
[1]; PLK2, 10 µM
  score (%): nb (Hits values higher than 30% were considered negative (no binding: nb))
[2]
  remaining binding at 10 µM: 17%
[3]
  remaining binding at 10 µM: 21%
[4]
  remaining binding at 10 µM: 0%
[5]
  remaining binding at 10 µM: > 30%
[6]
  remaining binding at 10 µM: 0.15%
[7]
  score (%): nb (Hits values higher than 30% were considered negative (no binding: nb))
[8]
  remaining binding at 10 µM: > 30%
[9]
  remaining binding at 10 µM: > 30%
[10]
  remaining binding at 10 µM: 18%
[11]
  remaining binding at 10 µM: > 30%
[12]
  remaining binding at 10 µM: > 30%
[13]
  remaining binding at 10 µM: > 30%
[14]; ROCK1, 10 µM
  remaining binding at 10 µM: 0%
[15]
  remaining binding at 10 µM: > 30%
[16]
  remaining binding at 10 µM: > 30%
[17]
  remaining binding at 10 µM: > 30%
[18]
  remaining binding at 10 µM: > 30%
[19]
  remaining binding at 10 µM: > 30%
[20]
  score (%): nb (Hits values higher than 30% were considered negative (no binding: nb))
[21]
  remaining binding at 10 µM: > 30%
[22]
  remaining binding at 10 µM: > 30%
[23]
  score (%): 15%
[24]
  remaining binding at 10 µM: > 30%
[25]
  score (%): nb (Hits values higher than 30% were considered negative (no binding: nb))
[26]
  remaining binding at 10 µM: > 30%
[27]
  remaining binding at 10 µM: 1.2%

## CCN1CCN(Cc2ccc(NC(=O)c3ccc(C)c(/C=C/c4cnc5[nH]ccc5c4Cl)c3)cc2C(F)(F)F)CC1 [HG-6-63-01, (E)-3-(2-(4-chloro-1H-pyrrolo[2,3-b]pyridin-5-yl)vinyl)-N-(4-((4-ethylpiperazin-1-yl)methyl)-3-(trifluoromethyl)phenyl)-4-methylbenzamide]
[28]
  score (%): nb (Hits values higher than 30% were considered negative (no binding: nb))
[29]
  score (%): nb (Hits values higher than 30% were considered negative (no binding: nb))

## CCN1CCN(Cc2ccc(NC(=O)c3ccc(C)c(C#Cc4cccnc4)c3)cc2C(F)(F)F)CC1 [XMD15-44]
[1]; kinase PLK2, 10 µM
  score (%): 100%
[2]
  remaining binding at 10 µM: 1.2%
[3]
  remaining binding at 10 µM: 0.1%
[4]
  remaining binding at 10 µM: 0%
[5]
  remaining binding at 10 µM: 72%
[28]
  score (%): nb (Hits values higher than 30% were considered negative (no binding: nb))
[6]
  remaining binding at 10 µM: > 30%
[7]
  score (%): nb (Hits values higher than 30% were considered negative (no binding: nb))
[8]
  remaining binding at 10 µM: 12%
[9]
  remaining binding at 10 µM: 48%
[10]
  remaining binding at 10 µM: > 30%
[11]
  remaining binding at 10 µM: 100%
[12]
  remaining binding at 10 µM: 100%
[13]
  remaining binding at 10 µM: 12%
[14]; kinase ROCK1, 10 µM
  remaining binding at 10 µM: 43%
[30]
  score (%): 11%
[15]
  remaining binding at 10 µM: > 30%
[16]
  remaining binding at 10 µM: 100%
[17]
  remaining binding at 10 µM: 81%
[18]
  remaining binding at 10 µM: 4%
[19]
  remaining binding at 10 µM: 100%
[20]
  score (%): nb (Hits values higher than 30% were considered negative (no binding: nb))
[21]
  remaining binding at 10 µM: 83%
[22]
  remaining binding at 10 µM: > 30%
[31]
  remaining binding at 10 µM: 6.2%
[32]
  remaining binding at 10 µM: > 30%
[29]
  score (%): 0.95%
[33]
  remaining binding at 10 µM: 11%
[23]
  score (%): 7.4%
[24]
  remaining binding at 10 µM: > 30%
[25]
  score (%): nb (Hits values higher than 30% were considered negative (no binding: nb))
[26]
  remaining binding at 10 µM: 100%
[27]
  remaining binding at 10 µM: 8.8%

Source: paper PMC4457528, “Identification of Novel Small Molecule Inhibitors of Oncogenic RET Kinase” (PLoS ONE, 2015)
